Laboratory results from patent US20100204203A1, “Chemical Compounds 637: Pyridopyrimidinediones as PDE4 Inhibitors” (priority 2007, published 2010).

Target: recombinant Human Phosphodiesterase B2 (PDE4B2) (Homo sapiens, UniProt Q07343)
Assay: Human Phosphodiesterase B2 Radiometric Assay (yttrium silicate SPA beads, [3H]cyclic AMP)
Type: biochemical
Settings: recombinant human PDE4B2, radiometric SPA assay, 8 nM [3H]cyclic AMP
Outline: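 Read-out is scintillation proximity: yttrium silicate beads (with 18 mM ZnSO4, added to stop the reaction) bind 5′AMP formed from 8 nM [3H]cAMP over 20 min. Beforehand, compound and 0.1 mg/mL enzyme were preincubated 30 min at 30 °C in pH 7.5 HEPES buffer with MgCl2, EGTA and Brij 35; pIC50 values were curve-fitted.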

recombinant Human Phosphodiesterase B2 (PDE4B2), sequence (Q07343 1-564 isoform Q07343-2): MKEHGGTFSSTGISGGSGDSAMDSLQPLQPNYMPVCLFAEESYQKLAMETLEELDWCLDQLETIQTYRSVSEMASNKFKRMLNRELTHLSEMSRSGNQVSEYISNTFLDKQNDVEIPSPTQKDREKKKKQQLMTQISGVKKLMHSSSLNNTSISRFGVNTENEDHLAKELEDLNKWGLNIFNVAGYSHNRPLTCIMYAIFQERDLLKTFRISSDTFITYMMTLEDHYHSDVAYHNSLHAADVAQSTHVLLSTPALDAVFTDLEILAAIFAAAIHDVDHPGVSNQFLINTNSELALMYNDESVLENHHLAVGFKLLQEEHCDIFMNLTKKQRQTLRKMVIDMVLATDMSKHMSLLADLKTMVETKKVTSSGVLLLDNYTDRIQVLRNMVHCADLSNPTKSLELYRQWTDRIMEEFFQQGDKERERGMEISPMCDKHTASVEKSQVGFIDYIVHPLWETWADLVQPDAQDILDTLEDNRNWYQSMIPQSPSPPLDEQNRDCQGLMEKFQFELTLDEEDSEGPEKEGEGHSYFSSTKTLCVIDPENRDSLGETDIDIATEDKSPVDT

`CN(C)C1(C(=O)NC2CCC(n3c(=O)c4cc(F)cnc4n(-c4cccc(-c5ccc(CN6CCC(CO)CC6)cc5)c4)c3=O)CC2)CC1` (stereo not drawn) [Example 128, 1-(dimethylamino)-N-{4-[6-fluoro-1-(4′-{[4-(hydroxymethyl)piperidin-1-yl]methyl}biphenyl-3-yl)-2,4-dioxo-1,4-dihydropyrido[2,3-d]pyrimidin-3(2H)-yl]cyclohexyl}cyclopropane-carboxamide] was tested, and the “PDE4B2 pIC50” value was 9.8.

Same assay, conditions: recombinant human PDE4B2, radiometric SPA assay, 8 nM [3H]cyclic AMP; read-out: PDE4B2 pIC50 (converted)

Compared with `CN(CCO)Cc1cc(O)ccc1-c1cccc(-n2c(=O)n([C@H]3CC[C@@H](NCc4cn5cc(F)ccc5n4)CC3)c(=O)c3cc(F)cnc32)c1` [Example 329, 6-fluoro-3-(cis-4-{[(6-fluoroimidazo[1,2-a]pyridin-2-yl)methyl]amino}cyclohexyl)-1-(4′-hydroxy-2′-{[(2-hydroxyethyl) (methyl)amino]methyl}biphenyl-3-yl)pyrido[2,3-d]pyrimidine-2,4(1H,3H)-dione], `C[C@H](O)CN(C)Cc1cc(O)ccc1-c1cccc(-n2c(=O)n([C@H]3CC[C@@H](NCc4cn5cc(F)ccc5n4)CC3)c(=O)c3cc(F)cnc32)c1` (relative stereo) [Example 318, 6-fluoro-3-(cis-4-{[(6-fluoroimidazo[1,2-a]pyridin-2-yl)methyl]amino}cyclohexyl)-1-(4′-hydroxy-2′-{[[(2S)-2-hydroxypropyl](methyl)amino]methyl}biphenyl-3-yl)pyrido[2,3-d]pyrimidine-2,4(1H,3H)-dione] is 16-fold higher in IC50: 0.126 nM for the first, 2 nM for the second.

Going from `CN(C)Cc1cc(F)ccc1-c1cccc(-n2c(=O)n([C@H]3CC[C@@H](NC(=O)c4cn5cc(F)ccc5n4)CC3)c(=O)c3cc(F)cnc32)c1` [Example 273, N-{cis-4-[1-{2′-[(Dimethylamino)methyl]-4′-fluorobiphenyl-3-yl}-6-fluoro-2,4-dioxo-1,4-dihydropyrido[2,3-d]pyrimidin-3(2H)-yl]cyclohexyl}-6-fluoroimidazo[1,2-a]pyridine-2-carboxamide] to `O=C(O)c1ccc(-c2cccc(-n3c(=O)n([C@H]4CC[C@@H](NC(=O)c5cn6cc(F)ccc6n5)CC4)c(=O)c4cc(F)cnc43)c2)cc1` [Example 27, 3′-[6-fiuoro-3-(cis-4-{[(6-fluoroimidazo[1,2-a]pyridin-2-yl)carbonyl]amino}cyclohexyl)-2,4-dioxo-3,4-dihydropyrido[2,3-d]pyrimidin-1(2H)-yl]biphenyl-4-carboxylic acid], the IC50 rises from 0.00398 nM to 0.251 nM (63-fold).

First: CN1CCN(CC(=O)N[C@H]2CC[C@@H](n3c(=O)c4cc(F)cnc4n(-c4cccc(-c5ccc(CN6CCCN(C)CC6)cc5)c4)c3=O)CC2)CC1 [Example 291, N-{cis-4-[6-fluoro-1-{4′-[(4-methyl-1,4-diazepan-1-yl)methyl]biphenyl-3-yl}-2,4-dioxo-1,4-dihydropyrido[2,3-d]pyrimidin-3(2H)-yl]cyclohexyl}-2-(4-methylpiperazin-1-yl)acetamide]
Second: O=C(N[C@H]1CC[C@@H](n2c(=O)c3cc(F)cnc3n(-c3cccc(-c4ccc(CN5CCCN(CCO)CC5)cc4)c3)c2=O)CC1)c1cn2c(n1)CCCC2 [Example 222, N-{cis-4-[6-fluoro-1-(4′-{[4-(2-hydroxyethyl)-1,4-diazepan-1-yl]methyl}biphenyl-3-yl)-2,4-dioxo-1,4-dihydropyrido[2,3-d]pyrimidin-3(2H)-yl]cyclohexyl}-5,6,7,8-tetrahydroimidazo[1,2-a]pyridine-2-carboxamide]
The IC50 of the first is 32-fold higher: 0.2 nM for the first, 0.00631 nM for the second.

First: O=c1c2cc(F)cnc2n(-c2cccc(-c3ccc(O)cc3CN3CCOCC3)c2)c(=O)n1[C@H]1CC[C@@H](NCc2cc(F)ccc2F)CC1 [Example 282, 3-{cis-4-[(2,5-difluorobenzyl)amino]cyclohexyl}-6-fluoro-1-[4′-hydroxy-2′-(morpholin-4-ylmethyl)biphenyl-3-yl]pyrido[2,3-d]pyrimidine-2,4(1H,3H)-dione]
Second: COC[C@H](C)N(C)Cc1cc(O)ccc1-c1cccc(-n2c(=O)n([C@H]3CC[C@@H](NCc4cn5cc(F)ccc5n4)CC3)c(=O)c3cc(F)cnc32)c1 [Example 315, 6-fluoro-3-(cis-4-{[(6-fluoroimidazo[1,2-a]pyridin-2-yl)methyl]amino}cyclohexyl)-1-(4′-hydroxy-2′-{[[(1S)-2-methoxy-1-methylethyl](methyl)amino]methyl}biphenyl-3-yl)pyrido[2,3-d]pyrimidine-2,4(1H,3H)-dione]
The IC50 of the first is 5-fold higher: 0.794 nM for the first, 0.158 nM for the second.

Going from `O=C(N[C@H]1CC[C@@H](n2c(=O)c3cc(F)cnc3n(-c3cccc(-c4ccc(OCCO)cc4)c3)c2=O)CC1)c1cn2cc(F)ccc2n1` [Example 58, 6-fluoro-N-{cis-4-[6-fluoro-1-[4′-(2-hydroxyethoxy)biphenyl-3-yl]-2,4-dioxo-1,4-dihydropyrido[2,3-d]pyrimidin-3(2H)-yl]cyclohexyl}imidazo[1,2-a]pyridine-2-carboxamide] to `O=C(N[C@H]1CC[C@@H](n2c(=O)c3cc(F)cnc3n(-c3cccc(-c4ccc(CC5CCNCC5)cc4)c3)c2=O)CC1)c1cn2cc(F)ccc2n1` [Example 345, 6-fluoro-N-{cis-4-[6-fluoro-2,4-dioxo-1-[4′-(piperidin-4-ylmethyl)biphenyl-3-yl]-1,4-dihydropyrido[2,3-d]pyrimidin-3(2H)-yl]cyclohexyl}imidazo[1,2-a]pyridine-2-carboxamide], the IC50 rises from 0.0158 nM to 0.0316 nM (2-fold).

Compared with `O=C(N[C@H]1CC[C@@H](n2c(=O)c3cc(F)cnc3n(-c3cccc(-c4ccc(CNC5CCNCC5)cc4)c3)c2=O)CC1)c1cn2cc(F)ccc2n1` [Example 268, 6-Fluoro-N-{cis-4-[6-fluoro-2,4-dioxo-1-{4′-[(piperidin-4-ylamino)methyl]biphenyl-3-yl}-1,4-dihydropyrido[2,3-d]pyrimidin-3(2H)-yl]cyclohexyl}imidazo[1,2-a]pyridine-2-carboxamide], `O=c1c2cc(F)cnc2n(-c2cccc(-c3ccc(CN4CCNCC4)cc3)c2)c(=O)n1[C@H]1CC[C@@H](NCc2cn3cc(F)ccc3n2)CC1` [Example 75, 6-fluoro-3-(cis-4-{[(6-fluoroimidazo[1,2-a]pyridin-2-yl)methyl]amino}cyclohexyl)-1-[4′-(piperazin-1-ylmethyl)biphenyl-3-yl]pyrido[2,3-d]pyrimidine-2,4(1H,3H)-dione] is 25-fold higher in IC50: 0.0126 nM for the first, 0.316 nM for the second.

Going from `Cc1cc(C(=O)N[C@H]2CC[C@@H](n3c(=O)c4cc(F)cnc4n(-c4cccc(-c5ccc(CN6CCN(C(C)C)CC6)cc5)c4)c3=O)CC2)nn1C` [Example 114, N-{cis-4-[6-fluoro-1-{4′-[(4-isopropylpiperazin-1-yl)methyl]biphenyl-3-yl}-2,4-dioxo-1,4-dihydropyrido[2,3-d]pyrimidin-3(2H)-yl]cyclohexyl}-1,5-dimethyl-1H-pyrazole-3-carboxamide] to `Cc1ccc(CN[C@H]2CC[C@@H](n3c(=O)c4cc(F)cnc4n(-c4cccc(-c5ccc(CN6CCN(C(C)C)CC6)cc5)c4)c3=O)CC2)s1` [Example 261, 6-fluoro-1-{4′-[(4-isopropylpiperazin-1-yl)methyl]biphenyl-3-yl}-3-(cis-4-{[(5-methyl-2-thienyl)methyl]amino}cyclohexyl)pyrido[2,3-d] pyrimidine-2,4(1H,3H)-dione], the IC50 rises from 0.00794 nM to 0.631 nM (79-fold).

Going from `O=C(N[C@H]1CC[C@@H](n2c(=O)c3cc(F)cnc3n(-c3cccc(-c4ccc(CN5CCCNCC5)cc4)c3)c2=O)CC1)c1cc2ccccc2cn1` [Example 353, N-{cis-4-[1-[4′-(1,4-diazepan-1-ylmethyl)biphenyl-3-yl]-6-fluoro-2,4-dioxo-1,4-dihydropyrido[2,3-d]pyrimidin-3(2H)-yl]cyclohexyl} isoquinoline-3-carboxamide] to `O=C(N[C@H]1CC[C@@H](n2c(=O)c3cc(F)cnc3n(-c3cccc(-c4ccc(CCN5CCOCC5)cc4)c3)c2=O)CC1)c1cn2cc(F)ccc2n1` [Example 50, 6-fluoro-N-{cis-4-[6-fluoro-1-[4′-(2-morpholin-4-ylethyl)biphenyl-3-yl]-2,4-dioxo-1,4-dihydropyrido[2,3-d]pyrimidin-3(2H)-yl]cyclohexyl}imidazo[1,2-c]pyridine-2-carboxamide], the IC50 falls from 0.0316 nM to 0.00794 nM (4-fold).

Compared with `CC(C)(C)OC(=O)N1CCN(CC(=O)N[C@H]2CC[C@@H](n3c(=O)c4cc(F)cnc4n(-c4cccc(-c5ccccc5)c4)c3=O)CC2)CC1` [Example 105, tert-butyl 4-(2-{[cis-4-(1-biphenyl-3-yl-6-fluoro-2,4-dioxo-1,4-dihydropyrido[2,3-d]pyrimidin-3(2H)-yl)cyclohexyl]amino}-2-oxoethyl)piperazine-1-carboxylate], `CN(C)CCN(C)Cc1ccc(-c2cccc(-n3c(=O)n([C@H]4CC[C@@H](NC(=O)C5(N(C)C)CC5)CC4)c(=O)c4cc(F)cnc43)c2)cc1` [Example 110, 1-(dimethylamino)-N-{cis-4-[1-(4′-{[[2-(dimethylamino)ethyl](methyl)amino]methyl}biphenyl-3-yl)-6-fluoro-2,4-dioxo-1,4-dihydropyrido[2,3-d]pyrimidin-3(2H)-yl]cyclohexyl}cyclopropanecarboxamide] is 3.2-fold lower in IC50: 0.0251 nM for the first, 0.00794 nM for the second.

Going from `NCCNC(=O)c1cccc(-n2c(=O)n([C@H]3CC[C@@H](NC(=O)c4cn5ccccc5n4)CC3)c(=O)c3cc(F)cnc32)c1` [Example 5, N-{cis-4-[1-(3-{[(2-aminoethyl)amino]carbonyl}phenyl)-6-fluoro-2,4-dioxo-1,4-dihydropyrido[2,3-d]pyrimidin-3(2H)-yl]cyclohexyl}imidazo[1,2-a]pyridine-2-carboxamide] to `CCCCc1ccc(C(=O)N[C@H]2CC[C@@H](n3c(=O)c4cc(F)cnc4n(-c4cccc(-c5ccc(CN6C[C@@H](C)N[C@@H](C)C6)cc5)c4)c3=O)CC2)nc1` [Example 302, 5-butyl-N-{cis-4-[1-(4′-{[(3R,5S)-3,5-dimethylpiperazin-1-yl]methyl}biphenyl-3-yl)-6-fluoro-2,4-dioxo-1,4-dihydropyrido[2,3-d]pyrimidin-3(2H)-yl]cyclohexyl} pyridine-2-carboxamide], the IC50 falls from 39.8 nM to 0.1 nM (400-fold).
